Data on ten molecules can be found in patent publication US12304912B2, “Fused bicyclic RAF inhibitors and methods for use thereof” (Jazz Pharmaceuticals Ireland Limited, priority 2020, dated 2025).

In data set [1] the test system is BRAF monomers in A375 cells. The data set is described as follows: A375 AlphaLISA SureFire pERK1/2 cellular assay (monomer). It is filed as cell-based. The note with it: Homo sapiens, A-375; A375 cells, 1 hr; read-out: pERK A375 (1 hr) pIC50 (converted). As to the method:
(§1) The human HCT-116 colorectal carcinoma cell line (ATCC CCL-247) endogenously expresses the KRAS^G13D mutation, which leads to constitutive activation of the MAP kinase pathway and phosphorylation of ERK. […] Assay read outs took place 2 or 24 hours after dosing with compounds. On the first day, HCT-116 cells were harvested, resuspended in growth medium (McCoys5A with Glutamax (Life Technologies 36600021) and 10% heat-inactivated fetal bovine serum (Sigma F9665)), and counted. Cells were plated in 100 μl per well in each well of a 96-well culture dish (Sigma CLS3598) to a final density of 30,000 (2 hr read) or 15,000 (24 hr read) cells per well and incubated over night at 37° C. and 5% CO2. On day 2, the growth medium was exchanged for dosing medium (McCoys5A with Glutamax (Life Technologies 36600021) and 1% heat-inactivated fetal bovine serum (Sigma F9665)) and the cells were dosed with compounds to produce a 10-point dose response, where the top concentration was 1 μM and subsequent concentrations were at 1/3 log dilution intervals. A matched DMSO control was included. The cells were subsequently incubated for either 2 or 24 hours at 37° C. and 5% CO2. After incubation, media was removed and the cells were incubated with lysis buffer containing phosphatase inhibitors for 15 minutes at room temperature. Cell lysates were transferred to a 12 area 96 well white Optiplate™ (Perkin Elmer 6005569) and incubated with anti-mouse IgG acceptor beads, a biotinylated anti-ERK1/2 rabbit antibody recognizing both phosphorylated and non-phosphorylated ERK1/2, a mouse antibody targeted to the Thr202/Tyr204 epitope and recognizing phosphorylated ERK proteins only, and streptavidin-coated donor beads. The biotinylated antibody binds to the streptavidin-coated donor beads and the phopsho-ERK1/2 antibody binds to the acceptor beads. Plates were read on an EnVision reader (Perkin Elmer) and excitation of the beads at 680 nm with a laser induced the release of singlet oxygen molecules from the donor beads that trigger energy transfer to the acceptor beads in close proximity, producing a signal that can be measured at […]. Both antibodies bound to phosphorylated ERK proteins, bringing the donor and acceptor beads into close proximity. All data were analyzed using the Dotmatics or GraphPad Prism software packages. Inhibition of ERK phosphorylation was assessed by determination of the absolute IC50 value, which is defined as the concentration of compound required to decrease the level of phosphorylated ERK proteins by 50% when compared to DMSO control.
A375 AlphaLISA SureFire pERK1/2 Cellular Assay (Monomer)
The human A375 melanoma cell line (ATCC CRL-1619) endogenously expresses the BRAF^V600E mutation, which leads to constitutive activation of the MAP kinase pathway and phosphorylation of ERK. In BRAF^V600E mutant tumours, BRAF signals as a monomer to activate ERK. To determine whether compounds can inhibit BRAF monomers in A375 cells, they were tested using AlphaLISA® SureFire® technology (Perkin Elmer p-ERK1/2 p-T202/Y204 assay kit ALSU-PERK-A10K). The main procedure is essentially the same as described above for HCT-116 cells, with the following adjustments: The A375 cells were cultivated and dosed in Dulbecco's modified Eagle's medium containing 4.5 g/L D-glucose (Sigma D6546), 10% heat-inactivated fetal bovine serum (Sigma F9665), and 1% Sodium-Pyruvate (Sigma S8636), and seeded with a seeding density of 30,000 cells per well. No media exchange was performed before dosing with compounds to produce a 10-point dose response, where the top concentration was 10 μM and subsequent concentrations were at 1/2 log dilution intervals. Subsequently, the cells were incubated for 1 hour at 37° C. and 5% CO2 before lysis.

The test system of data set [2] is RAF dimers in HCT-116 cells. The data set is described as follows: HCT-116 AlphaLISA SureFire pERK1/2 cellular assay (dimer). It is filed as cell-based. The settings on record: Homo sapiens, HCT-116; HCT116 cells pre-dosed with 1 μM Encorafenib, 1 hr; read-out: pERK HCT116 dimer (1 hr) pIC50 (converted). The procedure:
as §1
HCT-116 AlphaLISA SureFire pERK1/2 Cellular Assay (Dimer)
The human HCT-116 colorectal carcinoma cell line (ATCC CCL-247) endogenously expresses the KRAS^G13D mutation, which leads to constitutive activation of the MAP kinase pathway and phosphorylation of ERK. First generation RAF inhibitors can promote RAF dimer formation in KRAS mutant tumours leading to a paradoxical activation of the pathway. To determine whether compounds can circumvent this problem and inhibit RAF dimers in HCT-116 cells, they were tested using AlphaLISA® SureFire® technology (Perkin Elmer p-ERK1/2 p-T202/Y204 assay kit ALSU-PERK-A10K). The main procedure is essentially the same as described above, with the following adjustments: Cells were seeded with the seeding density of 30,000 cells per well. On the second day (the day of dosing) no medium change was performed and the cells were dosed with 1 μM of Encorafenib for 1 hour (at 37° C. and 5% CO2) to induce RAF dimers and promote paradoxical dimer-dependent pERK signalling. After incubation, the cells were washed, 100 μl fresh growth medium was added, and cells were dosed with compounds of interest to produce a 10-point dose response, where the top concentration was 10 μM and subsequent concentrations are at 1/2 log dilution intervals. Cells were incubated for another hour at 37° C. and 5% CO2 before lysis and processing with the pERK AlphaLISA® SureFire® kit as described above. […]

A short description of data set [3]: Microsomal stability assay, human liver microsomes (HLM). In kind it is in vitro ADME. The note with it: 0.5 mg/mL protein, 1 μM substrate. Put shortly:
(§2)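 Half-life and CLint come from the ln(% remaining)–time slope, with remaining compound quantified by LC-MS/MS after ice-cold solvent quench of timed samples. Incubations used 1 μM test compound and 0.5 mg·mL^−1 human or mouse liver microsomal protein at 37° C.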

Data set [4] is described as follows: Microsomal stability assay, mouse liver microsomes (MLM). In kind it is in vitro ADME. The settings on record: 0.5 mg/mL protein, 1 μM substrate. The gist of the method: as §2
Data set [5] can be described thus: Plasma protein binding assay, human plasma (hPPB). It is filed as in vitro ADME. The settings on record: 5 μM, equilibrium dialysis 4 hours 37° C. The gist of the method:
(§3)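 Equilibrium dialysis of 5 μM compound in previously frozen human or mouse plasma against phosphate buffer, 4 h at 37 °C. Both chambers quantified by LC-MS/MS; % free = (1−((PC−PF)/PC))×100.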

The nature of data set [6]: Plasma protein binding assay, mouse plasma (mPPB). The note with it: 5 μM, equilibrium dialysis 4 hours 37° C. It is filed as in vitro ADME. Put shortly:
as §3

A short description of data set [7]: Solubility (Sol), medium not stated. It is filed as physicochemical. The settings on record: cells not marked (FESSIF).

SMILES strings stand for the structures.

Regarding `Cc1ccccc1-c1c[nH]c(C2COc3ccc(Oc4ccnc5c4CCC(=O)N5)cc3C2)n1` (stereo not shown) [Compound 2, 5-[3-[4-(o-tolyl)-1H-imidazol-2-yl]chroman-6-yl]oxy-3,4-dihydro-1H-1,8-naphthyridin-2-one], the IC50 is 12.6 nM in data set [1] and 58.9 nM in data set [2]. Moreover, the intrinsic metabolic clearance (microsomal CLint) at 1 μM in data set [3] is 147 µL/min/mg; in data set [4], 85.8 µL/min/mg. Besides, in data set [5], the “hPPB (% free)” value is given as 0.3 % free. Moreover, in data set [6], the “mPPB (% free)” value came to 1 % free. For the same molecule, in data set [7], the Sol is reported as <1.1 mg/L.
For `O=C1CCc2c(Oc3ccc4c(c3)CC(c3nc(-c5ccccc5C(F)(F)F)c[nH]3)CO4)ccnc2N1` (stereo not shown) [Compound 4, 5-[3-[4-[2-(trifluoromethyl)phenyl]-1H-imidazol-2-yl]chroman-6-yl]oxy-3,4-dihydro-1H-1,8-naphthyridin-2-one], the results for the IC50 in data set [1] and in data set [2] were 97.7 nM and 269 nM, respectively. For the same molecule, the microsomal CLint at 1 μM in data set [3] was found to be 261 µL/min/mg; in data set [4], 121 µL/min/mg. In addition, in data set [5], the “hPPB (% free)” value is on record as <0.1 % free. Also, the “mPPB (% free)” value in data set [6] is listed as 0.5 % free. The Sol in data set [7] is <1.3 mg/L.
Turning to `O=C1CCc2c(Oc3ccc4c(c3)CC(c3nc(-c5cc(F)ccc5F)c[nH]3)CO4)ccnc2N1` (stereo not shown) [Compound 5, 5-[3-[4-(2,5-difluorophenyl)-1H-imidazol-2-yl]chroman-6-yl]oxy-3,4-dihydro-1H-1,8-naphthyridin-2-one], the results for the IC50 in data set [1] and in data set [2] were 186 nM and 191 nM, respectively. Also, the microsomal CLint at 1 μM is 33.9 µL/min/mg in data set [3] and 28.5 µL/min/mg in data set [4]. Further, the “hPPB (% free)” value in data set [5] is on record as 0.3 % free. Besides, the “mPPB (% free)” value in data set [6] came to 0.4 % free. For the same molecule, the Sol in data set [7] is reported as <1.2 mg/L.
Take `CC(C)NCc1cc(-c2c[nH]c(C3COc4ccc(Oc5ccnc6c5CCC(=O)N6)cc4C3)n2)cc(C(F)(F)F)c1` (stereo not shown) [Compound 6, 5-[3-[4-[3-[(isopropylamino)methyl]-5-(trifluoromethyl)phenyl]-1H-imidazol-2-yl]chroman-6-yl]oxy-3,4-dihydro-1H-1,8-naphthyridin-2-one]: the IC50 is 977 nM in data set [1] and 447 nM in data set [2]. Besides, the microsomal CLint at 1 μM in data set [3] came out at 33.4 µL/min/mg; in data set [4], 18.1 µL/min/mg. In addition, the “hPPB (% free)” value in data set [5] was 2.4 % free. Further, the “mPPB (% free)” value in data set [6] worked out at 1.3 % free. Besides, in data set [7], the Sol is <1.4 mg/L.
For `CN(C)Cc1cc(-c2c[nH]c(C3COc4ccc(Oc5ccnc6c5CCC(=O)N6)cc4C3)n2)cc(C(F)(F)F)c1` (stereo not shown) [Compound 7, 5-[3-[4-[3-[(dimethylamino)methyl]-5-(trifluoromethyl)phenyl]-1H-imidazol-2-yl]chroman-6-yl]oxy-3,4-dihydro-1H-1,8-naphthyridin-2-one], the values for the IC50 in data set [1] and in data set [2] were 692 nM and 191 nM, respectively. Moreover, the microsomal CLint at 1 μM in data set [3] came out at 67.9 µL/min/mg; in data set [4], 39.2 µL/min/mg. The “hPPB (% free)” value in data set [5] was 1.9 % free. Further, the “mPPB (% free)” value in data set [6] is listed as 0.9 % free. Also, in data set [7], the Sol is on record as <1.4 mg/L.
In the case of `Cc1ccc(-c2c[nH]c(C3COc4ccc(Oc5ccnc6c5CCC(=O)N6)cc4C3)n2)cc1` (stereo not shown) [Compound 9, 5-[3-[4-(p-tolyl)-1H-imidazol-2-yl]chroman-6-yl]oxy-3,4-dihydro-1H-1,8-naphthyridin-2-one], the values for the IC50 in data set [1] and in data set [2] were 331 nM and 186 nM, respectively. Also, the microsomal CLint at 1 μM in data set [3] stood at 70.5 µL/min/mg; in data set [4] it was 6.1 µL/min/mg. Further, the “hPPB (% free)” value in data set [5] is recorded as 0.6 % free. Further, the “mPPB (% free)” value in data set [6] worked out at 0.4 % free. In addition, the Sol in data set [7] was <1.1 mg/L.
For `COc1ccc(-c2c[nH]c(C3COc4ccc(Oc5ccnc6c5CCC(=O)N6)cc4C3)n2)cc1` (stereo not shown) [Compound 10, 5-[3-[4-(4-methoxyphenyl)-1H-imidazol-2-yl]chroman-6-yl]oxy-3,4-dihydro-1H-1,8-naphthyridin-2-one], the IC50 in data set [1] was 832 nM; in data set [2], 282 nM. In addition, the microsomal CLint at 1 μM came to 89.1 µL/min/mg in data set [3] and 45.9 µL/min/mg in data set [4]. Also, the “hPPB (% free)” value in data set [5] was determined as 0.6 % free. In addition, the “mPPB (% free)” value in data set [6] amounted to 0.7 % free. In addition, the Sol in data set [7] is given as <1.2 mg/L.
Regarding `O=C1CCc2c(Oc3ccc4c(c3)CC(c3nc(-c5ccc(Cl)cc5)c[nH]3)CO4)ccnc2N1` (stereo not shown) [Compound 11, 5-[3-[4-(4-chlorophenyl)-1H-imidazol-2-yl]chroman-6-yl]oxy-3,4-dihydro-1H-1,8-naphthyridin-2-one], the figures for the IC50 in data set [1] and in data set [2] were 257 nM and 214 nM, respectively. The microsomal CLint at 1 μM was 10.3 µL/min/mg in data set [3] and 29.1 µL/min/mg in data set [4]. Besides, the “hPPB (% free)” value in data set [5] came to 0.5 % free. Also, in data set [6], the “mPPB (% free)” value came to 0.1 % free. Also, the Sol in data set [7] is recorded as <1.2 mg/L.
Take `COc1cccc(-c2c[nH]c(C3COc4ccc(Oc5ccnc6c5CCC(=O)N6)cc4C3)n2)c1` (stereo not shown) [Compound 13, 5-[3-[4-(3-methoxyphenyl)-1H-imidazol-2-yl]chroman-6-yl]oxy-3,4-dihydro-1H-1,8-naphthyridin-2-one]: the IC50 was 35.5 nM in data set [1] and 123 nM in data set [2]. Moreover, the figures for the microsomal CLint at 1 μM in data set [3] and in data set [4] were 77.1 µL/min/mg and 114 µL/min/mg, respectively. Further, the “hPPB (% free)” value in data set [5] was 0.7 % free. Besides, in data set [6], the “mPPB (% free)” value is 1.2 % free. Further, in data set [7], the Sol is <1.2 mg/L.
On to `Cc1cccc(-c2c[nH]c(C3COc4ccc(Oc5ccnc6c5CCC(=O)N6)cc4C3)n2)c1` (stereo not shown) [Compound 14, 5-[3-[4-(m-tolyl)-1H-imidazol-2-yl]chroman-6-yl]oxy-3,4-dihydro-1H-1,8-naphthyridin-2-one], for which the IC50 was 18.2 nM in data set [1] and 75.9 nM in data set [2]. Also, the microsomal CLint at 1 μM in data set [3] was 60.7 µL/min/mg; in data set [4], 51.3 µL/min/mg. For the same molecule, in data set [5], the “hPPB (% free)” value is 0.1 % free. For the same molecule, the “mPPB (% free)” value in data set [6] is recorded as 0.5 % free. In data set [7], the Sol is <1.1 mg/L.
